Results taken from patent US20200157144A1, “ANTIMICROBIAL PEPTIDOMIMETICS” (priority 2017, published 2020).
“And” between values parts separate entries of the source, which are not always exact repeats. Equal values may be shown once.

Assays:
[1] = test system: Enterococcus faecalis ATCC 51299; assay: microbe, parasite or virus in culture; assay type: cell-based; details: Enterococcus faecalis, ATCC51299
Protocol: (§1) The antibacterial potency of Compound 34 was measured using the in vitro broth microdilution assay under assay conditions described by the Clinical and Laboratory Standards Institute. […] The test substance was dissolved in 100% DMSO (unless stated below), suspended completely by sonication or vortexing, diluted by 2-fold serial titrations in the same vehicle, for a total of 10 test concentrations (final concentrations: 100, 50, 25, 12.5, 6.25, 3.125, 1.56, 0.78, 0.39, 0.2 μM). A 4 μL aliquot of each dilution was added to 196 μL of broth medium seeded with the organism suspension in wells of a 96 well plate (bacterial count: 2-8×10^5 colony forming units/mL final). The final volume was 200 μL in each well and the final DMSO concentration was 2 percent. The incubation time is either 1 or 2 days at 36° C. All strains tested underwent aerobic respiration, except for ATCC BAA-1805 and ATCC 29399. Following incubation, the test plates were visually examined and wells were scored for growth or complete growth inhibition to define the minimum inhibitory concentration. Each test substance was evaluated in duplicate and the results below are the duplicate test values. Vehicle-control and an active reference agent were used as blank and positive controls, respectively.

[2] = test system: Enterococcus faecium ATCC BAA-2320; assay: microbe, parasite or virus in culture; assay type: cell-based; details: Enterococcus faecium, ATCCBAA2320
Protocol: as §1

`CN(C)c1cc(NC(=O)CNC(C)(C)C)c(O)c2c1C[C@H]1C[C@H]3[C@H](N(C)C)C(O)=C(C(N)=O)C(=O)[C@@]3(O)C(O)=C1C2=O` [Tigecycline] was tested, and the MIC [1] was 0.063 µg/mL and 0.11 µM and the MIC [2] was 0.063 µg/mL and 0.11 µM.
